From PMC8800111 (The Journal of Biological Chemistry, 2021)

How the values were obtained:
Assay type in all cases: cell-based
[1] = molecular target: proteins of U3A human fibrosarcoma cells (4462 proteins detected) (Homo sapiens, UniProt P0C2W1); details: protein FBXO45, U3A cells
[2] = molecular target: proteins of U3A human fibrosarcoma cells (4462 proteins detected) (Homo sapiens, UniProt O75459); details: protein PAGE1, U3A cells
[3] = molecular target: proteins of U3A human fibrosarcoma cells (4462 proteins detected) (Homo sapiens, UniProt P49588); details: protein AARS, U3A cells
proteins of U3A human fibrosarcoma cells (4462 proteins detected) (Homo sapiens, UniProt P49588), sequence (P49588 whole entry): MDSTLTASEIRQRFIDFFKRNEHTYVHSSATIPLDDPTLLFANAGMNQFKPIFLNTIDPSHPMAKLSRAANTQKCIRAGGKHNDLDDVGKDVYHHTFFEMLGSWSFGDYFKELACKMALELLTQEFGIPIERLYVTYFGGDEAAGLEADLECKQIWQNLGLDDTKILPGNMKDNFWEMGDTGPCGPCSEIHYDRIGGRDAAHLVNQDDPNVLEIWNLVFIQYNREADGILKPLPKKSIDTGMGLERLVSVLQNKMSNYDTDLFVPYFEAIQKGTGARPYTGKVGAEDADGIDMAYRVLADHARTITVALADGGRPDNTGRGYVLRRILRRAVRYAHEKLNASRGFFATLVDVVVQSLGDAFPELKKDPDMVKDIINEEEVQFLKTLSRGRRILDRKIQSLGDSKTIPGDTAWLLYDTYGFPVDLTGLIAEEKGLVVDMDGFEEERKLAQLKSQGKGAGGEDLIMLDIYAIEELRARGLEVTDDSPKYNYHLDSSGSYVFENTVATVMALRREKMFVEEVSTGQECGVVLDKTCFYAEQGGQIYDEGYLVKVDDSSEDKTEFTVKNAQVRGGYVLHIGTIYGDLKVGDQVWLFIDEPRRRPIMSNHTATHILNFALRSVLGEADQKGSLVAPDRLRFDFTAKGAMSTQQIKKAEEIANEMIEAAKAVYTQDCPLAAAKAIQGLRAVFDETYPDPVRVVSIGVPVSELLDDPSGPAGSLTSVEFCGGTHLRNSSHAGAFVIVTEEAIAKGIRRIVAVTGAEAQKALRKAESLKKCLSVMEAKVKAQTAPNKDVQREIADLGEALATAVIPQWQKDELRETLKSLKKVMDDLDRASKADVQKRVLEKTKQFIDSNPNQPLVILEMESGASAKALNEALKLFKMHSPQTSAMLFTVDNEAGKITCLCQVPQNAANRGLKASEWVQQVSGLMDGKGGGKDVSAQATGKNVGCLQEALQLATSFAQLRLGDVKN

[4] = molecular target: proteins of U3A human fibrosarcoma cells (4462 proteins detected) (Homo sapiens, UniProt Q99470); details: protein SDF2, U3A cells
[5] = molecular target: proteins of U3A human fibrosarcoma cells (4462 proteins detected) (Homo sapiens, UniProt Q13303); details: protein KCNAB2, U3A cells
[6] = molecular target: proteins of U3A human fibrosarcoma cells (4462 proteins detected) (Homo sapiens, UniProt Q92888); details: protein ARHGEF1; U3A cells
proteins of U3A human fibrosarcoma cells (4462 proteins detected) (Homo sapiens, UniProt Q92888), sequence (Q92888 whole entry): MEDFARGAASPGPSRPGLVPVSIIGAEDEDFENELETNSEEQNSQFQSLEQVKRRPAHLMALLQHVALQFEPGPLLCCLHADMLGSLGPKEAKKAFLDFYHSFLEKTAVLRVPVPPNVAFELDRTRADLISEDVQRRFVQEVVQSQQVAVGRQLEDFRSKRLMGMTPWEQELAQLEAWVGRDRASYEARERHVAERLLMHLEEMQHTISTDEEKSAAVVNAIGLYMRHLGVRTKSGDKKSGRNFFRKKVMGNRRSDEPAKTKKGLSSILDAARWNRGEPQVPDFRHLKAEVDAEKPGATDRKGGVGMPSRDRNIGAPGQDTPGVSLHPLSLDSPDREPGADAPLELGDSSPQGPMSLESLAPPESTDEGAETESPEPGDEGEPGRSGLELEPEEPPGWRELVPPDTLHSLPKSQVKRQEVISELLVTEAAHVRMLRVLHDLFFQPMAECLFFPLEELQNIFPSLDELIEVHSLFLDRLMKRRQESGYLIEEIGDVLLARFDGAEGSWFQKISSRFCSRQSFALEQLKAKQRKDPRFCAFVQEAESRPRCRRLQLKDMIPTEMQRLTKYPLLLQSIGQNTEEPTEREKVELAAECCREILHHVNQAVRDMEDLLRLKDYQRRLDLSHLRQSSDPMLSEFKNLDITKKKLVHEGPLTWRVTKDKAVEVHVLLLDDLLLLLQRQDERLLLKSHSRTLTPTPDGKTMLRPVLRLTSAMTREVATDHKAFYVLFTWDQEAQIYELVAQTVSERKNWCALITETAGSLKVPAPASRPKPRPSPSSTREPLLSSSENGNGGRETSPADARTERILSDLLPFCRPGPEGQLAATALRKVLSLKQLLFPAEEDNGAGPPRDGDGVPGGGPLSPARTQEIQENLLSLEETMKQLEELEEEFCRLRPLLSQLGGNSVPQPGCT

[7] = molecular target: proteins of U3A human fibrosarcoma cells (4462 proteins detected) (Homo sapiens, UniProt Q7L5Y9); details: protein MAEA; U3A cells
[8] = molecular target: proteins of U3A human fibrosarcoma cells (4462 proteins detected) (Homo sapiens, UniProt Q9NP64); details: protein ZCCHC17; soluble abundance after heat, U3A cells
proteins of U3A human fibrosarcoma cells (4462 proteins detected) (Homo sapiens, UniProt Q9NP64), sequence (Q9NP64 whole entry): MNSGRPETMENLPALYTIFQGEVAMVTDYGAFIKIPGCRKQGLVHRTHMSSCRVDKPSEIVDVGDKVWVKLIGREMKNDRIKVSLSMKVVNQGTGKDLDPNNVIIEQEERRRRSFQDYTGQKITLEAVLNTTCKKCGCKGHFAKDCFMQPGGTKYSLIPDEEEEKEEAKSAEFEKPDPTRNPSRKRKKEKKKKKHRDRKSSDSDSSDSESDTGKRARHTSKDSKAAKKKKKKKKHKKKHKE

[9] = molecular target: proteins of U3A human fibrosarcoma cells (4462 proteins detected) (Homo sapiens, UniProt Q9H5Q4); details: protein TFB2M; U3A cells
[10] = molecular target: proteins of U3A human fibrosarcoma cells (4462 proteins detected) (Homo sapiens, UniProt Q9H9Y6); details: protein POLR1B; soluble abundance after heat, U3A cells
[11] = molecular target: proteins of U3A human fibrosarcoma cells (4462 proteins detected) (Homo sapiens, UniProt Q8IWX8); details: protein CHERP; soluble abundance after heat, U3A cells
[12] = molecular target: proteins of U3A human fibrosarcoma cells (4462 proteins detected) (Homo sapiens, UniProt O95453); details: protein PARN; U3A cells
proteins of U3A human fibrosarcoma cells (4462 proteins detected) (Homo sapiens, UniProt O95453), sequence (O95453 whole entry): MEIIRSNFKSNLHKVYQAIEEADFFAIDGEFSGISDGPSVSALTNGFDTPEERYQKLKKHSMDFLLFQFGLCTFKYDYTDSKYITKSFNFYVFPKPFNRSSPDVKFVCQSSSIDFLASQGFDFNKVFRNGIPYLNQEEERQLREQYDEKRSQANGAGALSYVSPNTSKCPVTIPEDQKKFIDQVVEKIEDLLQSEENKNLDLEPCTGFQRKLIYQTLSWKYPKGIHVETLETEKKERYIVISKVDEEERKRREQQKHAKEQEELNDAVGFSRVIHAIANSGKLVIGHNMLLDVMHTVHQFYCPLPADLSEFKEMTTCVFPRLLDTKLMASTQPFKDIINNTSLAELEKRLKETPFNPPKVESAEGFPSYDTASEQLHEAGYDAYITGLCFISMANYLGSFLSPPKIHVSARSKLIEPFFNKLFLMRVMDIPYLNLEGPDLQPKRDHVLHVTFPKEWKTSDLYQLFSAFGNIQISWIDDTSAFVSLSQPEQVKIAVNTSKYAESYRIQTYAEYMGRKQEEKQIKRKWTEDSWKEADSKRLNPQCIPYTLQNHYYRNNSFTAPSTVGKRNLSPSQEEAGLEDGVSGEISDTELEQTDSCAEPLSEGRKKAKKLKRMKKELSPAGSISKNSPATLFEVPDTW

[13] = molecular target: proteins of U3A human fibrosarcoma cells (4462 proteins detected) (Homo sapiens, UniProt Q96QG7); details: protein MTMR9; soluble abundance after heat, U3A cells
[14] = molecular target: proteins of U3A human fibrosarcoma cells (4462 proteins detected) (Homo sapiens, UniProt Q8NHQ9); details: protein DDX55; U3A cells
[15] = molecular target: proteins of U3A human fibrosarcoma cells (4462 proteins detected) (Homo sapiens, UniProt Q9NYZ3); details: protein GTSE1; U3A cells
[16] = molecular target: proteins of U3A human fibrosarcoma cells (4462 proteins detected) (Homo sapiens, UniProt Q8TA86); details: protein RP9, U3A cells
proteins of U3A human fibrosarcoma cells (4462 proteins detected) (Homo sapiens, UniProt Q8TA86), sequence (Q8TA86 whole entry): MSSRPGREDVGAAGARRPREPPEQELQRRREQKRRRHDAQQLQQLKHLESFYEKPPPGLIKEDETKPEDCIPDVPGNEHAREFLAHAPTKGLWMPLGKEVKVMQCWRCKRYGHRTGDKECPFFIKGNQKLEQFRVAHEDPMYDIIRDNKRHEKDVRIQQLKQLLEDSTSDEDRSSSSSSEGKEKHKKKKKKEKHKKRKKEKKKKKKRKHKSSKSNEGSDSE

[17] = molecular target: proteins of U3A human fibrosarcoma cells (4462 proteins detected) (Homo sapiens, UniProt Q9NSA3); details: protein CTNNBIP1; U3A, 10 μM, 2 h
proteins of U3A human fibrosarcoma cells (4462 proteins detected) (Homo sapiens, UniProt Q9NSA3), sequence (Q9NSA3 whole entry): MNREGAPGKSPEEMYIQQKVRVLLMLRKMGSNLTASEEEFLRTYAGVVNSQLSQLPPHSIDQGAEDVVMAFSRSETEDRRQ

[18] = molecular target: proteins of U3A human fibrosarcoma cells (4462 proteins detected) (Homo sapiens, UniProt Q5T5Y3); details: protein CAMSAP1; soluble abundance after heat, U3A cells
[19] = molecular target: proteins of U3A human fibrosarcoma cells (4462 proteins detected) (Homo sapiens, UniProt Q9UK41); details: protein VPS28; U3A cells
[20] = molecular target: proteins of U3A human fibrosarcoma cells (4462 proteins detected) (Homo sapiens, UniProt P48507); details: protein GCLM; U3A cells
[21] = molecular target: proteins of U3A human fibrosarcoma cells (4462 proteins detected) (Homo sapiens, UniProt P14649); details: protein MYL6B, U3A cells
[22] = molecular target: proteins of U3A human fibrosarcoma cells (4462 proteins detected) (Homo sapiens, UniProt Q9Y2A7); details: protein NCKAP1; U3A cells
proteins of U3A human fibrosarcoma cells (4462 proteins detected) (Homo sapiens, UniProt Q9Y2A7), sequence (Q9Y2A7 whole entry): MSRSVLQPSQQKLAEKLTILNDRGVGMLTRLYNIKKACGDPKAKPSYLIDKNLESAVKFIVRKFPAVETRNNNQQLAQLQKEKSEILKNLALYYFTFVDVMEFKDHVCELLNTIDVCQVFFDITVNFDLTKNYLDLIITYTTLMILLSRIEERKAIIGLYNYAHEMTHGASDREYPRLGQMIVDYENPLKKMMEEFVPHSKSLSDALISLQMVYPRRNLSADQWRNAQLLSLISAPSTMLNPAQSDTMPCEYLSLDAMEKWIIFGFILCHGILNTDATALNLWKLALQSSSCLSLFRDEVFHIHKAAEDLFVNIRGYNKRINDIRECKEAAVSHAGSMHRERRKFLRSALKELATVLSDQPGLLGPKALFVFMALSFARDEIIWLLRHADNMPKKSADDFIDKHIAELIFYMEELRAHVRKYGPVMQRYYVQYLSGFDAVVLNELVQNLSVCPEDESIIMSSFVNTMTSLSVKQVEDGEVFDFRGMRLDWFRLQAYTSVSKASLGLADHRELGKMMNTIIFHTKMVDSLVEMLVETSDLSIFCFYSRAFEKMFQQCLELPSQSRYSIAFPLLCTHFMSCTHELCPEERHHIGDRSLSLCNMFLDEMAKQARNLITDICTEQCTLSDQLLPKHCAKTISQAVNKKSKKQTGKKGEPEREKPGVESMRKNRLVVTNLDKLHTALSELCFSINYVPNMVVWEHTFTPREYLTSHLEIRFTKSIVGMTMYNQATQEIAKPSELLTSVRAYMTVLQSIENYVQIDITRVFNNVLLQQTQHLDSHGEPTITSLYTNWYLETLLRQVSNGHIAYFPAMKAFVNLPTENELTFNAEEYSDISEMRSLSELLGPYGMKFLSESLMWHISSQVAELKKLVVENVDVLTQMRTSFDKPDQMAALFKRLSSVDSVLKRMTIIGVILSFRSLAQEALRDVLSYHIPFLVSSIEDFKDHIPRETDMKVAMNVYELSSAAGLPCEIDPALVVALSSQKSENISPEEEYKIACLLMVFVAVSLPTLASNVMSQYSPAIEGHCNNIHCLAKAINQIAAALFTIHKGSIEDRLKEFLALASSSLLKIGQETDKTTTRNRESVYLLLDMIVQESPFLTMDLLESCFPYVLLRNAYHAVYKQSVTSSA

[23] = molecular target: proteins of U3A human fibrosarcoma cells (4462 proteins detected) (Homo sapiens, UniProt Q14847); details: protein LASP1, U3A cells
[24] = molecular target: proteins of U3A human fibrosarcoma cells (4462 proteins detected) (Homo sapiens, UniProt Q9Y6E0); details: protein STK24; soluble abundance after heat, U3A cells
[25] = molecular target: proteins of U3A human fibrosarcoma cells (4462 proteins detected) (Homo sapiens, UniProt Q96T60); details: protein PNKP; U3A, 10 μM, 2 h
[26] = molecular target: proteins of U3A human fibrosarcoma cells (4462 proteins detected) (Homo sapiens, UniProt Q9UFW8); details: protein CGGBP1; soluble abundance after heat, U3A cells
[27] = molecular target: proteins of U3A human fibrosarcoma cells (4462 proteins detected) (Homo sapiens, UniProt Q8WTT2); details: protein NOC3L; U3A cells
[28] = molecular target: proteins of U3A human fibrosarcoma cells (4462 proteins detected) (Homo sapiens, UniProt Q9UIS9); details: protein MBD1; U3A cells
[29] = molecular target: proteins of U3A human fibrosarcoma cells (4462 proteins detected) (Homo sapiens, UniProt Q9Y592); details: protein CEP83; U3A, 10 μM, 2 h
[30] = molecular target: proteins of U3A human fibrosarcoma cells (4462 proteins detected) (Homo sapiens, UniProt Q9HAU0); details: protein PLEKHA5, U3A cells

proteins of U3A human fibrosarcoma cells (4462 proteins detected) (Homo sapiens, UniProt P0C2W1), sequence (P0C2W1 whole entry): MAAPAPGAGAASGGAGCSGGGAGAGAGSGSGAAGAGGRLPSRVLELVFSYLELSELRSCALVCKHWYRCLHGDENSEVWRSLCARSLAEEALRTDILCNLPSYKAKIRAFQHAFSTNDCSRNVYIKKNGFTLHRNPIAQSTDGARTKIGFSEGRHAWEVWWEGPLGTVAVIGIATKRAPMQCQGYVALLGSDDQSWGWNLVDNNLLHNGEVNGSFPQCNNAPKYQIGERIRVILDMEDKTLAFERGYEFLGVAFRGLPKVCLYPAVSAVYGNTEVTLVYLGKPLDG

## CCc1nc(N)nc(N)c1-c1ccc(Cl)cc1 [pyrimethamine]
[1]
  Log2 (PYR/DMSO): -0.04
[2]
  Log2 (PYR/DMSO): -0.04
[3]
  Log2 (PYR/DMSO): -0.04
[4]
  Log2 (PYR/DMSO): -0.04
[5]
  Log2 (PYR/DMSO): -0.03
[6]
  Log2 (PYR/DMSO): 0.18
[7]
  Log2 (PYR/DMSO): 0.16
[8]
  Log2 (PYR/DMSO): 0.15
[9]
  Log2 (PYR/DMSO): 0.18
[10]
  Log2 (PYR/DMSO): 0.13
[11]
  Log2 (PYR/DMSO): 0.14
[12]
  Log2 (PYR/DMSO): 0.21
[13]
  Log2 (PYR/DMSO): 0.15
[14]
  Log2 (PYR/DMSO): 0.23
[15]
  Log2 (PYR/DMSO): 0.20
[16]
  Log2 (PYR/DMSO): -0.05
[17]
  Log2 (PYR/DMSO), CTNNBIP1: -0.15
[18]
  Log2 (PYR/DMSO): 0.13
[19]
  Log2 (PYR/DMSO): 0.21
[20]
  Log2 (PYR/DMSO): 0.20
[21]
  Log2 (PYR/DMSO): -0.04
[22]
  Log2 (PYR/DMSO): 0.15
[23]
  Log2 (PYR/DMSO): -0.04
[24]
  Log2 (PYR/DMSO): 0.15
[25]
  Log2 (PYR/DMSO), PNKP: -0.22
[26]
  Log2 (PYR/DMSO): 0.14
[27]
  Log2 (PYR/DMSO): 0.16
[28]
  Log2 (PYR/DMSO): 0.19
[29]
  Log2 (PYR/DMSO), CEP83: -0.43
[30]
  Log2 (PYR/DMSO): -0.05
